Laboratory results: BigSolDB 2.1

CCOc1nc2cccc(C(=O)OC(C)OC(=O)OC3CCCCC3)c2n1Cc1ccc(-c2ccccc2-c2nn[nH]n2)cc1 (stereo not given)
solubility (mole fraction)
Conditions	293.15 K	298.15 K	303.15 K	308.15 K	313.15 K	323.15 K	333.15 K	343.15 K
in acetone	0.00673	0.00783	0.00946	0.0111	0.0133	–	–	–
in acetonitrile	0.000582	–	0.000912	–	0.0016	0.00263	0.00441	–
in ethanol	–	–	0.00144	–	0.00235	0.00465	0.00824	0.0118
